In patent US6358885B1, “Substituted phenylheterocyclic herbicides” (Mississippi State University, priority 1992, dated 2002):

Experiments:
cheatgrass = assay: Test B preemergence/postemergence greenhouse plant response rating 0 to 10; assay type: in vivo, Bromus secalinus; conditions: 0 to 10 scale
Method in brief: (§1)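 Postemergence treatment of plants two to eighteen cm tall ran alongside preemergence treatment of planted seed, each using compound in a non-phytotoxic solvent.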

cotton = assay: as above; assay type: in vivo, Gossypium hirsutum; conditions: 0 to 10 scale
Method in brief: as §1

lambsquarters [1] = assay: as above; assay type: in vivo, Chenopodium album; conditions: 0 to 10 scale
Method in brief: as §1

rice = assay: as above; assay type: in vivo, Oryza sativa; conditions: 0 to 10 scale
Method in brief: as §1

soybean [2] = assay: as above; assay type: in vivo, Glycine max; conditions: 0 to 10 scale
Method in brief: as §1

velvetleaf [3] = assay: as above; assay type: in vivo, Abutilon theophrasti; conditions: 0 to 10 scale
Method in brief: as §1

wild buckwheat = assay: as above; assay type: in vivo, Polygonum convolvulus; conditions: 0 to 10 scale
Method in brief: as §1

purple nutsedge = assay: as above; assay type: in vivo, Cyperus rotundus; conditions: 0 to 10 scale
Method in brief: as §1

barley = assay: Test C preemergence/postemergence greenhouse plant response rating 0 to 100; assay type: in vivo, Hordeum vulgare; conditions: POSTEMERGENCE; for Plant response rating Barley Igri: 0 to 100 scale
Method in brief: (§2)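 Compounds in non-phytotoxic solvent went onto sandy loam before emergence (seeded one day earlier) or onto plants at the one-to-four leaf stage. Duck salad was treated via flood water (~2.5 cm, maintained) over silt loam.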

corn = assay: as above; assay type: in vivo, Zea mays; conditions: POSTEMERGENCE; for Plant response rating, Corn: 0 to 100 scale
Method in brief: as §2

lambsquarters [4] = assay: as above; assay type: in vivo, Chenopodium album; conditions: POSTEMERGENCE; for Plant response rating Lambsquarters: 0 to 100 scale
Method in brief: as §2

morningglory = assay: as above; assay type: in vivo, Ipomoea hederacea; conditions: POSTEMERGENCE; for Plant response rating, Morningglory: 0 to 100 scale
Method in brief: as §2

rape = assay: as above; assay type: in vivo, Brassica napus; conditions: POSTEMERGENCE; for Plant response rating, Rape: 0 to 100 scale
Method in brief: as §2

sorghum = assay: as above; assay type: in vivo, Sorghum bicolor; conditions: POSTEMERGENCE; for Plant response rating, Sorghum: 0 to 100 scale
Method in brief: as §2

soybean [5] = assay: as above; assay type: in vivo, Glycine max; conditions: POSTEMERGENCE; for Plant response rating, Soybean: 0 to 100 scale
Method in brief: as §2

sugar beet = assay: as above; assay type: in vivo, Beta vulgaris; conditions: POSTEMERGENCE; for Plant response rating, Sugar beet: 0 to 100 scale
Method in brief: as §2

velvetleaf [6] = assay: as above; assay type: in vivo, Abutilon theophrasti; conditions: POSTEMERGENCE; for Plant response rating, Velvetleaf: 0 to 100 scale
Method in brief: as §2

umbrella sedge = assay: Test C flood test plant response rating 0 to 100; assay type: in vivo, Cyperus difformis; conditions: for Plant response rating Umbrella sedge: flood test species listed under POSTEMERGENCE, 0 to 100 scale
Method in brief: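 Compounds in non-phytotoxic solvent applied preemergence to sandy loam one day after planting, postemergence at the 1–4 leaf stage, or to ~2.5 cm floodwater over silt loam.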

COC(=O)c1cc(-c2nn3c(c2Cl)CCCC3)c(F)cc1Cl [Compound 43]
20: Plant response rating (0 to 100), Corn (corn; Rate 4 g/ha)
1: Plant response rating, Cotton (cotton; Rate 200 g/ha, PREEMERGENCE) | Plant response rating, Rice (rice; PREEMERGENCE, Rate 50 g/ha)
8: Plant response rating, Lambsquarter (lambsquarters [1]; POSTEMERGENCE, Rate 50 g/ha) | Plant response rating, Soybean (soybean [2]; POSTEMERGENCE, Rate 50 g/ha) | Plant response rating, Wild buckwheat (wild buckwheat; PREEMERGENCE, Rate 50 g/ha)
6: Plant response rating, Cheatgrass (cheatgrass; POSTEMERGENCE, Rate 50 g/ha)
2: Plant response rating, Cheatgrass (cheatgrass; PREEMERGENCE, Rate 50 g/ha) | Plant response rating, Rice (rice; Rate 200 g/ha, PREEMERGENCE)
7: Plant response rating, Rice (rice; POSTEMERGENCE, Rate 50 g/ha)
30: Plant response rating (0 to 100), Barley Igri (barley; Rate 4 g/ha) | Plant response rating (0 to 100), Sugar beet (sugar beet; Rate 4 g/ha)
10: Plant response rating, Cotton (cotton; POSTEMERGENCE, Rate 50 g/ha) | Plant response rating, Cotton (cotton; POSTEMERGENCE, Rate 200 g/ha) | Plant response rating, Lambsquarter (lambsquarters [1]; Rate 200 g/ha, POSTEMERGENCE) | Plant response rating, Lambsquarter (lambsquarters [1]; Rate 200 g/ha, PREEMERGENCE) | Plant response rating, Velvetleaf (velvetleaf [3]; POSTEMERGENCE, Rate 50 g/ha) | Plant response rating, Velvetleaf (velvetleaf [3]; Rate 200 g/ha, POSTEMERGENCE) | Plant response rating, Velvetleaf (velvetleaf [3]; Rate 200 g/ha, PREEMERGENCE) | Plant response rating, Wild buckwheat (wild buckwheat; POSTEMERGENCE, Rate 50 g/ha) | Plant response rating, Wild buckwheat (wild buckwheat; Rate 200 g/ha, POSTEMERGENCE) | Plant response rating, Wild buckwheat (wild buckwheat; Rate 200 g/ha, PREEMERGENCE)
4: Plant response rating, Soybean (soybean [2]; PREEMERGENCE, Rate 50 g/ha)
90: Plant response rating, Corn (corn; 62 g/ha) | Plant response rating, Corn (corn; 250 g/ha) | Plant response rating (0 to 100), Lambsquarters (lambsquarters [4]; Rate 4 g/ha) | Plant response rating, Morningglory (morningglory; 62 g/ha) | Plant response rating, Soybean (soybean [5]; 250 g/ha)
40: Plant response rating (0 to 100), Barley Igri (barley; Rate 16 g/ha) | Plant response rating (0 to 100), Morningglory (morningglory; Rate 4 g/ha) | Plant response rating (0 to 100), Sorghum (sorghum; Rate 4 g/ha) | Plant response rating (0 to 100), Soybean (soybean [5]; Rate 4 g/ha) | Plant response rating (0 to 100), Sugar beet (sugar beet; Rate 16 g/ha)
9: Plant response rating, Cheatgrass (cheatgrass; POSTEMERGENCE, Rate 200 g/ha) | Plant response rating, Lambsquarter (lambsquarters [1]; PREEMERGENCE, Rate 50 g/ha) | Plant response rating, Rice (rice; Rate 200 g/ha, POSTEMERGENCE) | Plant response rating, Soybean (soybean [2]; Rate 200 g/ha, POSTEMERGENCE)
3: Plant response rating, Cheatgrass (cheatgrass; Rate 200 g/ha, PREEMERGENCE) | Plant response rating, Soybean (soybean [2]; Rate 200 g/ha, PREEMERGENCE) | Plant response rating, Nutsedge (purple nutsedge; POSTEMERGENCE, Rate 50 g/ha) | Plant response rating, Nutsedge (purple nutsedge; Rate 200 g/ha, POSTEMERGENCE)
0: Plant response rating, Cotton (cotton; PREEMERGENCE, Rate 50 g/ha) | Plant response rating, Nutsedge (purple nutsedge; PREEMERGENCE, Rate 50 g/ha) | Plant response rating, Nutsedge (purple nutsedge; Rate 200 g/ha, PREEMERGENCE) | Plant response rating (0 to 100), Umbrella sedge (umbrella sedge; POSTEMERGENCE section, flood test, Rate 4 g/ha) | Plant response rating (0 to 100), Umbrella sedge (umbrella sedge; Rate 16 g/ha, under POSTEMERGENCE head (flood test species))
100: Plant response rating Lambsquarters (lambsquarters [4]; 62 g/ha) | Plant response rating Lambsquarters (lambsquarters [4]; 250 g/ha) | Plant response rating (0 to 100), Lambsquarters (lambsquarters [4]; Rate 16 g/ha) | Plant response rating, Morningglory (morningglory; 250 g/ha) | Plant response rating, Rape (rape; 62 g/ha) | Plant response rating, Rape (rape; 250 g/ha) | Plant response rating (0 to 100), Rape (rape; Rate 16 g/ha) | Plant response rating, Sorghum (sorghum; 62 g/ha) | Plant response rating, Sorghum (sorghum; 250 g/ha) | Plant response rating, Velvetleaf (velvetleaf [6]; 62 g/ha) | Plant response rating, Velvetleaf (velvetleaf [6]; 250 g/ha) | Plant response rating (0 to 100), Velvetleaf (velvetleaf [6]; Rate 16 g/ha)
80: Plant response rating (0 to 100), Rape (rape; Rate 4 g/ha) | Plant response rating, Sugar beet (sugar beet; 250 g/ha)
70: Plant response rating, Soybean (soybean [5]; 62 g/ha) | Plant response rating Umbrella sedge (umbrella sedge; 250 g/ha)
50: Plant response rating Barley Igri (barley; 62 g/ha) | Plant response rating (0 to 100), Corn (corn; Rate 16 g/ha) | Plant response rating (0 to 100), Soybean (soybean [5]; Rate 16 g/ha) | Plant response rating (0 to 100), Velvetleaf (velvetleaf [6]; Rate 4 g/ha)
5: Plant response rating, Velvetleaf (velvetleaf [3]; PREEMERGENCE, Rate 50 g/ha)
60: Plant response rating Barley Igri (barley; 250 g/ha) | Plant response rating (0 to 100), Morningglory (morningglory; Rate 16 g/ha) | Plant response rating (0 to 100), Sorghum (sorghum; Rate 16 g/ha) | Plant response rating, Sugar beet (sugar beet; 62 g/ha) | Plant response rating Umbrella sedge (umbrella sedge; 62 g/ha)
